Tests used:
Assay in all cases: relative viability (nuclei count vs DMSO), 5 days (fraction); higher = more cells survive
IMD-0354 + OSI-027 = compound: O=C(Nc1cc(C(F)(F)F)cc(C(F)(F)F)c1)c1cc(Cl)ccc1O [IMD-0354] + COc1cccc2cc(-c3nc([C@H]4CC[C@H](C(=O)O)CC4)n4ncnc(N)c34)[nH]c12 [OSI-027] (partner 0.5 µM)
Outline: (§1)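 The day after seeding in 1536-well plates, lung cancer cell lines were treated by pin tool with a single drug, or with a fixed anchor-drug dose together with five library-drug doses (not always all listed) in √10 steps. After 5 days, a combined fix-and-stain solution (final 0.05% Triton X-100, 1% formaldehyde, 1 ug/ml Hoechst) was added. Nuclei counted on 4× images gave relative viability as treated counts over vehicle counts, reported as the median of duplicate plates.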

CX-5461 + Luminespib = compound: Cc1cnc(CNC(=O)c2c(=O)c3ccc(N4CCCN(C)CC4)nc3n3c2sc2ccccc23)cn1 [CX-5461] + CCNC(=O)c1noc(-c2cc(C(C)C)c(O)cc2O)c1-c1ccc(CN2CCOCC2)cc1 [Luminespib] (partner 0.01 µM)
Outline: as §1

CX-5461 + Pictilisib = compound: Cc1cnc(CNC(=O)c2c(=O)c3ccc(N4CCCN(C)CC4)nc3n3c2sc2ccccc23)cn1 [CX-5461] + CS(=O)(=O)N1CCN(Cc2cc3nc(-c4cccc5[nH]ncc45)nc(N4CCOCC4)c3s2)CC1 [Pictilisib] (partner 1 µM)
Outline: as §1

IMD-0354 + AZD7762 = compound: O=C(Nc1cc(C(F)(F)F)cc(C(F)(F)F)c1)c1cc(Cl)ccc1O [IMD-0354] + NC(=O)Nc1cc(-c2cccc(F)c2)sc1C(=O)N[C@H]1CCCNC1 [AZD7762] (partner 0.2 µM)
Outline: as §1

Cell Line	relative viability (IMD-0354 + OSI-027; first compound 0.04 µM)	relative viability (IMD-0354 + OSI-027; first compound 0.1265 µM)	relative viability (IMD-0354 + OSI-027; first compound 0.4 µM)	relative viability (IMD-0354 + OSI-027; first compound 1.265 µM)	relative viability (IMD-0354 + OSI-027; first compound 4 µM)	relative viability (CX-5461 + Luminespib; first compound 0.01 µM)	relative viability (CX-5461 + Luminespib; first compound 0.03162 µM)	relative viability (CX-5461 + Luminespib; first compound 0.3162 µM)	relative viability (CX-5461 + Luminespib; first compound 1 µM)	relative viability (CX-5461 + Pictilisib; first compound 0.03162 µM)	relative viability (CX-5461 + Pictilisib; first compound 0.3162 µM)	relative viability (CX-5461 + Pictilisib; first compound 1 µM)	relative viability (IMD-0354 + AZD7762; first compound 0.04 µM)	relative viability (IMD-0354 + AZD7762; first compound 0.1265 µM)	relative viability (IMD-0354 + AZD7762; first compound 0.4 µM)	relative viability (IMD-0354 + AZD7762; first compound 1.265 µM)	relative viability (IMD-0354 + AZD7762; first compound 4 µM)	relative viability (CX-5461 + Luminespib; first compound 0.1 µM)	relative viability (CX-5461 + Pictilisib; first compound 0.01 µM)	relative viability (CX-5461 + Pictilisib; first compound 0.1 µM)
NCI-H1651	0.667	0.667	0.495	0.199	0.0772	0.827	0.682	0.603	0.171	0.414	0.489	0.105	0.468	0.504	0.422	0.161	0.14			
NCI-H1666	0.86	0.841	0.641	0.415	0.302	0.938	0.93	1.01	0.775	0.533	0.337	0.349	0.777	0.957	0.689	0.623	0.467	0.922	0.375	
NCI-H1734	0.625	0.662	0.44	0.281	0.137	0.182	0.148	0.173	0.157	0.519	0.317	0.341	0.573	0.565	0.417	0.198	0.152	0.193	0.516	0.503
NCI-H1755	0.65	0.782	0.528	0.354	0.302	0.383	0.357	0.402	0.512	0.484	0.301	0.383	0.412	0.546	0.344	0.365	0.274	0.482	0.463	0.446
NCI-H1792	0.791	0.701	0.35	0.394	0.418	0.57	0.48	0.458	0.497	0.296	0.276	0.281	0.896	0.517	0.551	0.17	0.0979	0.432	0.294	0.277
NCI-H1793	0.319	0.293	0.161	0.165	0.131	0.199	0.249		0.194	0.311	0.212	0.402	0.592	0.542	0.337	0.181	0.205	0.131	0.202	0.344
NCI-H1915	0.589	0.629	0.107	0.241	0.155	0.857	0.852	0.923	0.783	1.18	0.326	0.997	0.666	0.694	0.58	0.507	0.149	0.813	0.966	1.1
NCI-H1944	0.441	0.445	0.375	0.317	0.161	0.854	0.711	0.51	0.672	0.371		0.353	0.433	0.541	0.488	0.321	0.156	0.864	0.335	0.332

— the supplement of paper PMC10307832
